Calls of active or inactive are those of the source. The calls are words filed in the database; no cut-off is given here.
Experiments:
[1] = Inhibition of carrageenan-induced NFkappaB expression in paw tissue (unknown origin) by immunohistochemistry; assay type: functional
[2] = Inhibition of carrageenan-induced TNFalpha expression in paw tissue (unknown origin) by immunohistochemistry; assay type: functional
Rattus norvegicus [3] = assay: Antiinflammatory activity in rat assessed as inhibition of carrageenan-induced paw volume at 20 mg/kg, po administered 1 hr prior to carrageenan challenge measured after 3 hrs relative to vehicle-treated control; assay type: functional
Rattus norvegicus [4] = assay: Antiinflammatory activity in rat assessed as inhibition of carrageenan-induced paw volume at 20 mg/kg, po administered 1 hr prior to carrageenan challenge measured after 3 hrs (reference value: 1.68 +/- 0.029 ml); assay type: functional
[5] = Cytotoxicity against mouse RAW264.7 cells assessed as cell viability at 20 uM after 24 hrs by MTT assay; assay type: cell-based; conditions: read-out: Activity
Rattus norvegicus [6] = assay: Ulcerogenic effect in Albino Wistar rat assessed as damage in gastric mucosa at 60 mg, po after 5 hrs; assay type: toxicity, organism-based; conditions: in vivo
Mus musculus [7] = assay: Analgesic activity in Swiss Albino acetic acid-induced writhing mouse model assessed as number of writhes at 20 mg/kg, po administered 30 mins before to acetic acid challenge measured for 10 mins (reference value: 92.8 +/- 1.49); assay type: functional
Mus musculus [8] = assay: Analgesic activity in Swiss Albino acetic acid-induced writhing mouse model assessed as protection at 20 mg/kg, po administered 30 mins before to acetic acid challenge measured for 10 mins; assay type: functional
RAW264.7 = assay: Antiinflammatory activity against mouse RAW264.7 cells assessed as inhibition of LPS-induced TNFalpha level at 20 uM after 24 hrs by ELISA relative to untreated control; assay type: functional; conditions: RAW264.7, 24 h
Rattus norvegicus [9] = assay: Antiinflammatory activity in rat assessed as inhibition of carrageenan-induced paw volume at 20 mg/kg, po administered 1 hr prior to carrageenan challenge measured after 5 hrs relative to vehicle-treated control; assay type: functional
Rattus norvegicus [10] = assay: Antiinflammatory activity in rat assessed as inhibition of carrageenan-induced paw volume at 20 mg/kg, po administered 1 hr prior to carrageenan challenge measured after 5 hrs (reference value: 1.70 +/- 0.020 ml); assay type: functional
[11] = Inhibition of carrageenan-induced COX-2 expression in paw tissue (unknown origin) by immunohistochemistry; assay type: functional
[12] = Reduction in carrageenan-induced lipid peroxidation in gastric mucosa tissue (unknown origin) assessed as MDA after 30 mins; assay type: functional, tissue-based

Row | SMILES | inhibition [1] | inhibition [2] | inhibition in vivo at 20 mg/kg (Rattus norvegicus [3]) [%] | Activity (Rattus norvegicus [4]) [mL] | viability at 24 h, 20 µM [5] [%] | Activity (Rattus norvegicus [6]) | Activity (Mus musculus [7]) | Activity (Mus musculus [8]) [%] | inhibition at 20 µM (RAW264.7) [%] | inhibition in vivo at 20 mg/kg (Rattus norvegicus [9]) [%] | Activity (Rattus norvegicus [10]) [mL] | inhibition [11] | inhibition [12]
1 | O=C(/C=C/C=C/c1ccc2c(c1)OCO2)OCc1cn(-c2ccccc2Cl)nn1 | Active | Active | 74.5 | 0.58 | 90 | Non-toxic | 45.8 | 50.64 | 73.7 | 76.7 | 0.56 | Active | Active
2 | O=C(/C=C/C=C/c1ccc2c(c1)OCO2)OCc1cn(-c2ccc(F)cc2)nn1 |  |  | 55.5 | 0.87 |  |  |  |  |  | 57 | 0.85 |  | 
3 | Cc1ccc(-n2cc(COC(=O)/C=C/C=C/c3ccc4c(c3)OCO4)nn2)cc1C |  |  | 67.9 | 0.68 |  |  | 51.2 | 44.93 |  | 70.3 | 0.66 |  | 
4 | O=C(/C=C/C=C/c1ccc2c(c1)OCO2)OCc1cn(-c2cccc(Cl)c2)nn1 |  |  | 64.7 | 0.71 |  |  |  |  |  | 67.8 | 0.69 |  | 
5 | O=C(/C=C/C=C/c1ccc2c(c1)OCO2)OCc1cn(-c2ccc([N+](=O)[O-])cc2)nn1 |  |  | 19.6 | 1.39 |  |  |  |  |  | 22.1 | 1.37 |  | 
6 | Cc1ccc(-n2cc(COC(=O)/C=C/C=C/c3ccc4c(c3)OCO4)nn2)cc1 |  |  | 46.2 | 1.01 |  |  |  |  |  | 49.1 | 0.98 |  | 
7 | O=C(/C=C/C=C/c1ccc2c(c1)OCO2)OCc1cn(-c2ccc(Br)cc2)nn1 |  |  | 53.6 | 0.89 |  |  |  |  |  | 55.5 | 0.87 |  | 
8 | COc1ccc2c(c1)c(CC(=O)O)c(C)n2C(=O)c1ccc(Cl)cc1 [INDOMETHACIN] | Active | Active | 72 | 0.608 | 55 | Toxic | 39.4 | 57.43 | 68 | 77 | 0.54 | Active | 
9 | O=C(/C=C/C=C/c1ccc2c(c1)OCO2)OCc1cn(-c2ccccc2Br)nn1 | Active | Active | 76.1 | 0.56 | 90 | Non-toxic | 42.6 | 54.09 | 70.6 | 80.4 | 0.51 | Active | Active
10 | O=C(/C=C/C=C/c1ccc2c(c1)OCO2)OCc1cn(-c2ccc(Cl)cc2)nn1 |  |  | 57.5 | 0.83 |  |  |  |  |  | 59.7 | 0.81 |  | 
11 | O=C(/C=C/C=C/c1ccc2c(c1)OCO2)N1CCCCC1 [PIPERINE] |  |  | 53.7 | 0.676 |  | Non-toxic |  |  | 49.7 | 54.7 | 0.67 |  | 
12 | Cc1ccccc1-n1cc(COC(=O)/C=C/C=C/c2ccc3c(c2)OCO3)nn1 |  |  | 51.5 | 0.91 |  |  |  |  |  | 54.6 | 0.88 |  | 
13 | O=C(/C=C/C=C/c1ccc2c(c1)OCO2)OCc1cn(-c2ccccc2F)nn1 |  |  | 68.2 | 0.68 |  |  | 45.8 | 48.7 |  | 70.8 | 0.65 |  | 
14 | CCc1ccc(-n2cc(COC(=O)/C=C/C=C/c3ccc4c(c3)OCO4)nn2)cc1 |  |  | 57.5 | 0.83 |  |  |  |  |  | 60 | 0.8 |  | 
15 | O=C(/C=C/C=C/c1ccc2c(c1)OCO2)OCc1cn(-c2ccc(Cl)cc2Cl)nn1 |  |  | 69.3 | 0.64 | 90 | Non-toxic | 51 | 45.04 | 60.7 | 71.2 | 0.622 |  | Active
16 | O=C(/C=C/C=C/c1ccc2c(c1)OCO2)OCc1cn(-c2cccc([N+](=O)[O-])c2)nn1 |  |  | 15.6 | 1.44 |  |  |  |  |  | 15.4 | 1.46 |  | 
17 | O=C(/C=C/C=C/c1ccc2c(c1)OCO2)OCc1cn(-c2ccccc2)nn1 |  |  | 37 | 1.12 |  |  |  |  |  | 38.5 | 1.11 |  | 
18 | O=C(/C=C/C=C/c1ccc2c(c1)OCO2)OCc1cn(-c2ccc(Cl)c(Cl)c2)nn1 |  |  | 69.6 | 0.632 | 90 | Non-toxic | 46.4 | 50 | 63.6 | 73 | 0.588 |  | Active
19 | COc1ccc(-n2cc(COC(=O)/C=C/C=C/c3ccc4c(c3)OCO4)nn2)cc1 |  |  | 54 | 0.88 |  |  |  |  |  | 55.9 | 0.86 |  | 
20 | COc1ccccc1-n1cc(COC(=O)/C=C/C=C/c2ccc3c(c2)OCO3)nn1 |  |  | 61.6 | 0.76 |  |  |  |  |  | 65 | 0.72 |  | 
21 | CCOc1ccc(-n2cc(COC(=O)/C=C/C=C/c3ccc4c(c3)OCO4)nn2)cc1 |  |  | 32.9 | 1.1 |  |  |  |  |  | 36.5 | 1.14 |  | 

Source: ChEMBL document CHEMBL3414439, “Design, synthesis and biological evaluation of piperic acid triazolyl derivatives as potent anti-inflammatory agents” (Eur J Med Chem, 2015)
